Measurements published in patent publication US9029531B2 (Agios Pharmaceuticals, Inc., priority 2012, dated 2015).

Biological target: T1, glutaminase (GAC) (Homo sapiens, UniProt O94925)
T1 sequence (O94925 55-598 isoform O94925-3 limits assumed): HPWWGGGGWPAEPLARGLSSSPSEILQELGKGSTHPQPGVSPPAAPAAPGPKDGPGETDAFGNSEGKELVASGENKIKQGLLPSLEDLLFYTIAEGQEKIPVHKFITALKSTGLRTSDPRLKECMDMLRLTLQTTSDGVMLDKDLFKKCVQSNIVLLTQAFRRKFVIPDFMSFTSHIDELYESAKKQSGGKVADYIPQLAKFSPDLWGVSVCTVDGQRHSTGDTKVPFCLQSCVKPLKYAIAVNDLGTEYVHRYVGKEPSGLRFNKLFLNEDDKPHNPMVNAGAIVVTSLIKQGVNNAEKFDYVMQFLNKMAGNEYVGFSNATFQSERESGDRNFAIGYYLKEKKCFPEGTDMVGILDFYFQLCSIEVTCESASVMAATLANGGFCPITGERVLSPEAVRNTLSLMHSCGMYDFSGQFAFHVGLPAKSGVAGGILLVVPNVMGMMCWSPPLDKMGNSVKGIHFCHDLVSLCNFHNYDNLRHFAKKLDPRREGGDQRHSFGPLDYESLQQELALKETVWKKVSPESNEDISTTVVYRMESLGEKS
Test: Glutaminase coupled endpoint enzymatic assay (Example A)
Format: biochemical
Settings: inhibition of glutaminase; assay of Example A or Example B
Outline: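 Endpoint coupled assay: glutamate formed by GAC drives GDH NADH production, recycled by diaphorase reducing resazurin to fluorescent resorufin (Ex544/Em590) after SDS stop. Buffer pH 8.5 with phosphate; glutamine at Km; enzyme preincubated with compound 60 min at room temperature.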

Row | IC50 [nM] | SMILES
1 | 100 to 500 | O=C(Cc1cc(N2CCC2)ccn1)Nc1nnc([C@H]2CCC[C@H](c3nnc(NC(=O)Cc4cc(N5CCC5)ccn4)s3)C2)s1 [Compound 254, N,N′-(5,5′-((1S,3S)-cyclohexane-1,3-diyl)bis(1,3,4-thiadiazole-5,2-diyl))bis(2-(4-(azetidin-1-yl)pyridin-2-yl)acetamide)]
2 | 100 to 500 | O=C(Cc1cc(N2CC(O)C2)ccn1)Nc1nnc([C@H]2CCC[C@H](c3nnc(NC(=O)Cc4cc(N5CC(O)C5)ccn4)s3)C2)s1 [Compound 255, N,N′-(5,5′-((1S,3S)-cyclohexane-1,3-diyl)bis(1,3,4-thiadiazole-5,2-diyl))bis(2-(4-(3-hydroxyazetidin-1-yl)pyridin-2-yl)acetamide)]
3 | 100 to 500 | CN1CCN(c2cccc(CC(=O)Nc3nnc([C@H]4CCC[C@H](c5nnc(NC(=O)Cc6cccc(N7CCN(C)CC7)c6)s5)C4)s3)c2)CC1 [Compound 259]
4 | 100 to 500 | O=C(Cc1cccc(N2CCCC2)c1)Nc1nnc([C@H]2CCC[C@H](c3nnc(NC(=O)Cc4cccc(N5CCCC5)c4)s3)C2)s1 [Compound 260, N,N′-(5,5′-((1S,3S)-cyclohexane-1,3-diyl)bis(1,3,4-thiadiazole-5,2-diyl))bis(2-(3-(pyrrolidin-1-yl)phenyl)acetamide)]
5 | < 100 | O=C(Cc1cccc(N2CCOCC2)c1)Nc1nnc([C@H]2CCC[C@H](c3nnc(NC(=O)Cc4cccc(N5CCOCC5)c4)s3)C2)s1 [Compound 262, N,N′-(5,5′-((1S,3S)-cyclohexane-1,3-diyl)bis(1,3,4-thiadiazole-5,2-diyl))bis(2-(3-morpholinophenyl)acetamide)]
6 | 100 to 500 | O=C(Cc1cccc(N2CCC2)n1)Nc1nnc([C@H]2CCC[C@H](c3nnc(NC(=O)Cc4cccc(N5CCC5)n4)s3)C2)s1 [Compound 267, N,N′-(5,5′-((1S,3S)-cyclohexane-1,3-diyl)bis(1,3,4-thiadiazole-5,2-diyl))bis(2-(6-(azetidin-1-yl)pyridin-2-yl)acetamide)]
7 | < 100 | O=C(Cc1ccc(N2CC(F)(F)C2)nc1)Nc1nnc([C@H]2CCC[C@H](c3nnc(NC(=O)Cc4ccc(N5CC(F)(F)C5)nc4)s3)C2)s1 [Compound 271, N,N′-(5,5′-((1S,3S)-cyclohexane-1,3-diyl)bis(1,3,4-thiadiazole-5,2-diyl))bis(2-(6-(3,3-difluoroazetidin-1-yl)pyridin-3-yl)acetamide)]
8 | < 100 | O=C(Cc1c[nH]cn1)Nc1nnc([C@H]2CCC[C@H](c3nnc(NC(=O)Cc4c[nH]cn4)s3)C2)s1 [Compound 273, N,N′-(5,5′-((1S,3S)-cyclohexane-1,3-diyl)bis(1,3,4-thiadiazole-5,2-diyl))bis(2-(1H-imidazol-4-yl)acetamide)]
9 | 100 to 500 | CN(C)c1nc(CC(=O)Nc2nnc([C@H]3CCC[C@H](c4nnc(NC(=O)Cc5csc(N(C)C)n5)s4)C3)s2)cs1 [Compound 278, N,N′-(5,5′-((1S,3S)-cyclohexane-1,3-diyl)bis(1,3,4-thiadiazole-5,2-diyl))bis(2-(2-(dimethylamino)thiazol-4-yl)acetamide)]
10 | < 100 | COc1nc(CC(=O)Nc2nnc([C@H]3CCC[C@H](c4nnc(NC(=O)Cc5csc(OC)n5)s4)C3)s2)cs1 [Compound 279, N,N′-(5,5′-((1S,3S)-cyclohexane-1,3-diyl)bis(1,3,4-thiadiazole-5,2-diyl))bis(2-(2-methoxythiazol-4-yl)acetamide)]

The next lines start with the molecule.

Row | SMILES | IC50 [nM]
11 | O=C(Cc1cc(N2CC(F)C2)ccn1)Nc1nnc([C@H]2CCC[C@H](c3nnc(NC(=O)Cc4cc(N5CC(F)C5)ccn4)s3)C2)s1 [Compound 256, N,N′-(5,5′-((1S,3S)-cyclohexane-1,3-diyl)bis(1,3,4-thiadiazole-5,2-diyl))bis(2-(4-(3-fluoroazetidin-1-yl)pyridin-2-yl)acetamide)] | < 100
12 | O=C(Cc1cccc(N2CCC2)c1)Nc1nnc([C@H]2CCC[C@H](c3nnc(NC(=O)Cc4cccc(N5CCC5)c4)s3)C2)s1 [Compound 257, N,N′-(5,5′-((1S,3S)-cyclohexane-1,3-diyl)bis(1,3,4-thiadiazole-5,2-diyl))bis(2-(3-(azetidin-1-yl)phenyl)acetamide)] | < 100
13 | O=C(Cc1cc(N2CC(F)(F)C2)ccn1)Nc1nnc([C@H]2CCC[C@H](c3nnc(NC(=O)Cc4cc(N5CC(F)(F)C5)ccn4)s3)C2)s1 [Compound 258, N,N′-(5,5′-((1S,3S)-cyclohexane-1,3-diyl)bis(1,3,4-thiadiazole-5,2-diyl))bis(2-(4-(3,3-difluoroazetidin-1-yl)pyridin-2-yl)acetamide)] | 100 to 500
14 | O=C(Cc1cccc(NC2CC2)c1)Nc1nnc([C@H]2CCC[C@H](c3nnc(NC(=O)Cc4cccc(NC5CC5)c4)s3)C2)s1 [Compound 261, N,N′-(5,5′-((1S,3S)-cyclohexane-1,3-diyl)bis(1,3,4-thiadiazole-5,2-diyl))bis(2-(3-(cyclopropylamino)phenyl)acetamide)] | < 100
15 | O=C(Cc1cccc(N2CCNCC2)c1)Nc1nnc([C@H]2CCC[C@H](c3nnc(NC(=O)Cc4cccc(N5CCNCC5)c4)s3)C2)s1 [Compound 263, N,N′-(5,5′-((1S,3S)-cyclohexane-1,3-diyl)bis(1,3,4-thiadiazole-5,2-diyl))bis(2-(3-(piperazin-1-yl)phenyl)acetamide)] | < 100
16 | CNc1cccc(CC(=O)Nc2nnc([C@H]3CCC[C@H](c4nnc(NC(=O)Cc5cccc(NC)c5)s4)C3)s2)c1 [Compound 264, N,N′-(5,5′-((1S,3S)-cyclohexane-1,3-diyl)bis(1,3,4-thiadiazole-5,2-diyl))bis(2-(3-(methylamino)phenyl)acetamide)] | < 100
17 | O=C(Cc1ccc(N2CCOCC2)cc1)Nc1nnc([C@H]2CCC[C@H](c3nnc(NC(=O)Cc4ccc(N5CCOCC5)cc4)s3)C2)s1 [Compound 265, N,N′-(5,5′-((1S,3S)-cyclohexane-1,3-diyl)bis(1,3,4-thiadiazole-5,2-diyl))bis(2-(4-morpholinophenyl)acetamide)] | 100 to 500
18 | O=C(Cc1ccc(N2CC(F)(F)C2)cc1)Nc1nnc([C@H]2CCC[C@H](c3nnc(NC(=O)Cc4ccc(N5CC(F)(F)C5)cc4)s3)C2)s1 [Compound 266, N,N′-(5,5′-((1S,3S)-cyclohexane-1,3-diyl)bis(1,3,4-thiadiazole-5,2-diyl))bis(2-(4-(3,3-difluoroazetidin-1-yl)phenyl)acetamide)] | < 100
19 | O=C(Cc1cccc(N2CC(F)(F)C2)n1)Nc1nnc([C@H]2CCC[C@H](c3nnc(NC(=O)Cc4cccc(N5CC(F)(F)C5)n4)s3)C2)s1 [Compound 268, N,N′-(5,5′-((1S,3S)-cyclohexane-1,3-diyl)bis(1,3,4-thiadiazole-5,2-diyl))bis(2-(6-(3,3-difluoroazetidin-1-yl)pyridin-2-yl)acetamide)] | < 100
20 | O=C(Cc1cccc(N2CC(F)(F)C2)c1)Nc1nnc([C@H]2CCC[C@H](c3nnc(NC(=O)Cc4cccc(N5CC(F)(F)C5)c4)s3)C2)s1 [Compound 269] | 100 to 500
21 | COC1CN(c2cccc(CC(=O)Nc3nnc([C@H]4CCC[C@H](c5nnc(NC(=O)Cc6cccc(N7CC(OC)C7)n6)s5)C4)s3)n2)C1 [Compound 270, N,N′-(5,5′-((1S,3S)-cyclohexane-1,3-diyl)bis(1,3,4-thiadiazole-5,2-diyl))bis(2-(6-(3-methoxyazetidin-1-yl)pyridin-2-yl)acetamide)] | < 100
22 | O=C(Cc1cccc(C2CCNCC2)c1)Nc1nnc([C@H]2CCC[C@H](c3nnc(NC(=O)Cc4cccc(C5CCNCC5)c4)s3)C2)s1 [Compound 272, N,N′-(5,5′-((1S,3S)-cyclohexane-1,3-diyl)bis(1,3,4-thiadiazole-5,2-diyl))bis(2-(3-(piperidin-4-yl)phenyl)acetamide)] | < 100
23 | Nc1nc(CC(=O)Nc2nnc([C@H]3CCC[C@H](c4nnc(NC(=O)Cc5csc(N)n5)s4)C3)s2)cs1 [Compound 274, N,N′-(5,5′-((1S,3S)-cyclohexane-1,3-diyl)bis(1,3,4-thiadiazole-5,2-diyl))bis(2-(2-aminothiazol-4-yl)acetamide)] | < 100
24 | CNc1nc(CC(=O)Nc2nnc([C@H]3CCC[C@H](c4nnc(NC(=O)Cc5csc(NC)n5)s4)C3)s2)cs1 [Compound 275, N,N′-(5,5′-((1S,3S)-cyclohexane-1,3-diyl)bis(1,3,4-thiadiazole-5,2-diyl))bis(2-(2-(methylamino)thiazol-4-yl)acetamide)] | < 100
25 | O=C(Cc1csc(N2CCOCC2)n1)Nc1nnc([C@H]2CCC[C@H](c3nnc(NC(=O)Cc4csc(N5CCOCC5)n4)s3)C2)s1 [Compound 276, N,N′-(5,5′-((1S,3S)-cyclohexane-1,3-diyl)bis(1,3,4-thiadiazole-5,2-diyl))bis(2-(2-morpholinothiazol-4-yl)acetamide)] | 100 to 500
26 | COCCOc1ccc(CC(=O)Nc2nnc([C@H]3CCC[C@H](c4nnc(NC(=O)Cc5cccc(N6CC(F)(F)C6)n5)s4)C3)s2)nc1 [Compound 280, 2-(6-(3,3-difluoroazetidin-1-yl)pyridin-2-yl)-N-(5-((1S,3S)-3-(5-(2-(5-(2-methoxyethoxy)pyridin-2-yl)acetamido)-1,3,4-thiadiazol-2-yl)cyclohexyl)-1,3,4-thiadiazol-2-yl)acetamide] | < 100
